Measurements published in patent publication US20140356343A1, “COMPOSITION FOR TREATING PARKINSON'S DISEASE” (priority 2011, published 2014).
Read-outs that look alike come from different tables or passages of the source. No end group written: not given here.

System: unilateral 6-hydroxydopamine (6-OHDA) lesioned rat
Assay type: in vivo, Male Sprague-Dawley rats
Conditions: for effect on onset of rotational action of apamin: given with apamin
Description: The potential antiparkinsonian activity of apitoxin (bee venom; Alyostal®), and certain of its constituents such as apamin, melittin, hyaluronidase, and others were investigated in the standard, unilateral 6-hydroxydopamine (6-OHDA) lesioned rat model, in animals responding to an apomorphine challenge, according to the method previously described with minor modifications (Oh J D, Chartisathian K, Ahmed S M, and Chase T N. (2003) J of Neurosci. Res. 72, 768-780, Oh J D, Chartisathian K, Chase T N and Butcher L L, (2000) Brain Res. 853, 174-185, Oh J D and Chase T N. (2002) Amino Acids 23, 133-139, Oh J D, Del Dotto P, Chase T N. (1997) Neurosci Lett. 228, 5-8, Oh J D, Geller A I, Zhang G, Chase T N. (2003) Br. Res. 971, 18-30, Oh J D, Russell D, Vaughan C L and Chase T N. (1998) Br. Res. 813, 150-159.). Conventional anti-parkinsonian dopamine (DA) agonists, apomorphine, amphetamine, and L-dopa were used as comparator drugs. Control animals received vehicle, phosphate buffered saline (PBS). Rotation (turning) behavior in response to drug challenge was used as a predictor of anti-parkinson activity. All compounds or vehicle were administered either subcutaneously (s.c.) or intraperitonealy (i.p.).
The anti-parkinson activity of various test substances was studied as previously described 1-6. Male Sprague-Dawley rats weighing approximately 300 g were housed with free access to food and water. Under […] (50 mg/kg, i.p.), the nigrostriatal pathway was unilaterally lesioned by administering 6-OHDA HCl (8 μg in 4 μL of saline with 0.02% ascorbate) into the left medial forebrain bundle (AP −5.0, L 1.3, V 8.0 from the dura mater). Following surgery, rats were challenged with apomorphine (0.1 mg/kg, s.c.), to confirm the lesion of nigro-striatal pathway. Rats that responded to apomorphine were kept for further testing.
Rats received test drugs, comparator drugs, or vehicle on post-surgical Week 3 following 6-OHDA lesioning and subsequently for additional […] (Week 4-10 post-surgery).
Rotation behavior was measured by placing rats in a rotometer and measuring turning behavior over 5-minute periods (5-min bins). To measure rotation behavior, each animal was placed at least 10 minutes prior to the drug or vehicle administration into a rotometer and turning was measured. Animals then received test drugs, and turning behavior was measured as described above for 4 to 12 hours post-drug administration.

[1] = Melittin 0.5 to 3 mg/kg with apamin 0.5 to 1.0 mg/kg
[2] = Melittin alone, dose range 1-3 mg/kg
[3] = Hyaluronidase alone, dose range 10 to 30 mg/kg
[4] = PL-A2 alone, approximately 2 and 3 mg/kg i.p.
[5] = Phospholipase A2 alone, dose range 2 to 3 mg/kg

CC(C)C[C@@H]1NC(=O)[C@H](C)NC(=O)[C@H]([C@@H](C)O)NC(=O)[C@H](CCC(=O)O)NC(=O)[C@@H]2CCCN2C(=O)[C@H](C)NC(=O)[C@H](CCCCN)NC(=O)[C@@H]2CSSC[C@@H](C(=O)N[C@@H](CCC(N)=O)C(=O)N[C@@H](CCC(N)=O)C(=O)N[C@@H](Cc3cnc[nH]3)C(N)=O)NC(=O)[C@H](CCCNC(=N)N)NC(=O)[C@H](CCCNC(=N)N)NC(=O)[C@H](C)NC(=O)[C@H](CSSC[C@H](N)C(=O)N[C@@H](CC(N)=O)C(=O)N2)NC1=O [Apamin, apamin]
Atypical Motor Behaviors (Apamin 0.5 mg/kg alone): None
Atypical Motor Behaviors (Apamin 1 mg/kg alone): Mild
Atypical Motor Behaviors (dose at which seen) (apamin alone): ≧1.5 mg/kg
doses at which abnormal motor behaviors increasingly interfered with normal and rotatory motor behaviors (apamin alone): 1.5 to 3.0 mg/kg
doses at which abnormal motor behaviors were clinically insignificant (apamin alone): 0.75 to 1.50 mg/kg
dose at which atypical motor behavior began to appear (apamin alone, tremors, dystonic postures, alterations in muscular tone, locomotor incoordination): about 1.5 mg/kg
therapeutic index compared with apitoxin (motoric response, apamin alone): lower therapeutic index

CN1CCc2cccc3c2[C@H]1Cc1ccc(O)c(O)c1-3 [Apomorphine, apomorphine, reference compound]
effect on apamin-induced contralateral rotations (apomorphine co-administration at less than standard dose, 0.005 mg/kg s.c.): mildly potentiate

CC[C@H](C)[C@H](NC(=O)CN)C(=O)NCC(=O)N[C@@H](C)C(=O)N[C@H](C(=O)N[C@@H](CC(C)C)C(=O)N[C@@H](CCCCN)C(=O)N[C@H](C(=O)N[C@@H](CC(C)C)C(=O)N[C@H](C(=O)N[C@H](C(=O)NCC(=O)N[C@@H](CC(C)C)C(=O)N1CCC[C@H]1C(=O)N[C@@H](C)C(=O)N[C@@H](CC(C)C)C(=O)N[C@H](C(=O)N[C@@H](CO)C(=O)N[C@@H](Cc1c[nH]c2ccccc12)C(=O)N[C@H](C(=O)N[C@@H](CCCCN)C(=O)N[C@@H](CCCNC(=N)N)C(=O)N[C@@H](CCCCN)C(=O)N[C@@H](CCCNC(=N)N)C(=O)N[C@@H](CCC(N)=O)C(=O)N[C@@H](CCC(N)=O)C(N)=O)[C@@H](C)CC)[C@@H](C)CC)[C@@H](C)O)[C@@H](C)O)C(C)C)C(C)C [Melittin]
effect on rotatory response to apamin (0.25 mg/kg apamin and 0.75 mg/kg melittin): potentiated
atypical motor behaviors that apamin usually induces [1]: mild to absence
onset of contralateral rotations [1]: faster onset
Atypical Motor Behaviors [2]: None
Rotational Response Contralateral [2]: 10 number of turns in 12 hours
Rotational Response Ipsilateral [2]: 45 to 50 number of turns in 12 hours
ability similar to apamin to induce a conspicuous turning response (apitoxin component given alone): none
effect on onset of rotational action of apamin: significantly hasten
rotational response (melittin alone 0.5 to 10 mg/kg i.p., contralateral more frequent than ipsilateral): modest, intermittent rotational response

CC(N)Cc1ccccc1 (centres unmarked) [amphetamine, reference compound]
effect on apamin-induced ipsilateral rotation (amphetamine co-administration at less than the standard dose of 0.05 mg/kg i.p.): mildly potentiate

NCCc1c[nH]cn1 [histamine, Histamine, reference compound]
ability similar to apamin to induce a conspicuous turning response (rat, in vivo): none

N[C@@H](Cc1ccc(O)c(O)c1)C(=O)O [levodopa, reference compound]
effect on apamin-induced contralateral rotations (levodopa co-administration at less than standard dose, 5 mg/kg i.p.): mildly potentiate

HTGAVLAGV [HTGAVLAGV, reference compound]
Atypical Motor Behaviors (HTGAVLAGV alone, 1-10 mg/kg): None

Hyaluronidase
effect on atypical motor behaviors induced by apamin (1.0 mg/kg apamin and 20 mg/kg hyaluronidase): reduced
Atypical Motor Behaviors [3]: None
Rotational Response Contralateral [3]: 5 number of turns in 12 hours
Rotational Response Ipsilateral [3]: 40 number of turns in 12 hours
ability similar to apamin to induce a conspicuous turning response (apitoxin component given alone): none
effect on ipsilateral turning behavior induced by apamin (hyaluronidase 5 to 20 mg/kg i.p. with apamin 0.1 to 1.0 mg/kg): mildly potentiated
turning (hyaluronidase given alone, 0.5 to 30 mg/kg i.p.): did not induce turning
effect on atypical motor behaviors observed with higher doses of apamin (hyaluronidase with apamin, vs apamin given alone): decreased

Mast Cell Degranulating Peptide (IKCNCKRHVIKPHICRKICGKN; ends and bridges not checked; cysteine pairing not given here; UniProt P01499 28-49, looked up) [apitoxin component, GenScript #RP10663, reference compound]
ability similar to apamin to induce a conspicuous turning response (apitoxin component given alone): none

Phospholipase A-2 [Phospholipase A2]
effect on rotatory response to apamin (0.5 mg/kg apamin and 5 mg/kg PLA-2): potentiated
duration of ipsilateral rotations [4]: about 4 hours
rotational response [4]: induced ipsilateral rotations
start of ipsilateral rotations after administration [4]: 1 to 4 h
Atypical Motor Behaviors (PL-A2 given alone): No atypical motor behaviors were observed
motor response (PL-A2 given alone, 1 mg/kg i.p.): minimal squirming response
effect on onset of turning behavior (PLA-2 given with apamine): accelerated
effect on turning behavior (PLA-2 given with apamine): moderately potentiated
Atypical Motor Behaviors [5]: None
Rotational Response Contralateral [5]: 10 number of turns in 12 hours
Rotational Response Ipsilateral [5]: 50 to 60 number of turns in 12 hours
ability similar to apamin to induce a conspicuous turning response (apitoxin component given alone): none
effect on onset of rotational action of apamin: significantly hasten

Secapin [reference compound]
Atypical Motor Behaviors (Secapin alone, 1-20 mg/kg): None
Rotational Response Contralateral (Secapin alone, 1-20 mg/kg): 5 number of turns in 12 hours
Rotational Response Ipsilateral (Secapin alone, 1-20 mg/kg): 40 number of turns in 12 hours
rotational behavior above baseline (spontaneous rotation) (Secapin at 1 to 20 mg/kg): little or no rotational behavior
ability similar to apamin to induce a conspicuous turning response (apitoxin component given alone): none

Tertiapin (ALCNCNRIIIPHMCWKKCGKK; UniProt P56587 1-21, looked up) [apitoxin component, Sigma-Aldrich #T8316, reference compound]
Atypical Motor Behaviors (Tertiapin alone, 1 and 3 mg/kg): None
Rotational Response Contralateral (Tertiapin alone, 1 and 3 mg/kg): 5 number of turns in 12 hours
Rotational Response Ipsilateral (Tertiapin alone, 1 and 3 mg/kg): 40 number of turns in 12 hours
rotational behavior above baseline (spontaneous rotation) (Tertiapin at 1 and 3 mg/kg): little or no rotational behavior
ability similar to apamin to induce a conspicuous turning response (apitoxin component given alone): none
